Patent US6133233A, “Peptide modulation of reperfusion injury” (Kansas State University Research Foundation, priority 1998, dated 2000)

Legend:
[1] = test system: leukocyte adherence and extravasation; settings: cited from earlier work
[2] = test system: neutrophil oxidase activity; test: Superoxide anion production in whole neutrophils (SOD-inhibitable ferricytochrome c reduction, PMA); format: cell-based; settings: concentrations 5-10 μM
Protocol: (§1) In these experiments, superoxide anion production by neutrophils was determined by the superoxide dismutase-inhibitable reduction of ferricytochrome c.
(§2) Four samples were prepared for each animal: (1) neutrophils (1×10^6 cells) in Hanks' balanced salt solution (HBSS; without phenol red) mixed with 100 μl (80 μM) of ferricytochrome c, 10 μl (0.1 μg) phorbol myristate acetate (PMA), and 100 μl (300 U) of superoxide dismutase (SOD); (2) cells treated with ferricytochrome c only; (3) cells treated with ferricytochrome c and PMA; and (4) cells treated with ferricytochrome c and SOD. The mixtures were incubated at 39° C. for 20 min. and then centrifuged at 4° C. (350×g) for 5 min. Cell-free supernatant (200 μl) was transferred to flat-bottom 96-well plates, and OD was read at 550 nm using HBSS as the blank. Production of superoxide anion was calculated using the following formula: OD of [(3+4)-(1+2)]×190.5=nm superoxide/1 ×10^6 cells/20 min.

intact human neutrophils = test: Superoxide anion generation in intact human neutrophils; format: cell-based
Protocol: as §1, §2

[3] = test system: leukocyte adherence to mesenteric venular endothelium; test: Leukocyte adherence to mesenteric venular endothelium after ischemia-reperfusion; format: in vivo, rat; settings: rats, pretreatment with about 5 μM
Protocol: (§3) In this example, the efficiency of PR-39 (SEQ ID NO: 1) was tested in an in vivo model of reperfusion. Measurements of reactive oxygen release, neutrophil adherence to postcapillary venules and neutrophil emigration through venular endothelium, and vascular leakage were made in the presence and absence of PR-39 (SEQ ID No. 1).
(§4) In this example, male Sprague-Dawley rats weighing 220-250 g each were used. The rats were anesthetized by intraperitoneal injection of pentobarbital (30-40 mg/kg rat body weight) and the jugular vein of each rat was cannulated for reagent injection. […] The images were captured with a charge-coupled device camera (Model C2400-60, Hamamatsu Photonics) which was mounted on the microscope, projected onto a television monitor (Model PVM-2030, Sony) and recorded using a videocassette recorder (Model HS-U65, Mitsubishi). […]
(§5) Single, unbranched venules with diameters between 25-35 μm and lengths longer than 150 μm (both measured with a video caliper, Microcirculation Research Institute, Texas A&M University) were selected for the studies. […]
(§6) The number of adherent and transmigrating leukocytes was determined off-line using videotaped images. […] Adherent leukocytes were expressed as the number per 100 μm length of venule. The number of emigrating leukocytes were also determined off-line and were expressed as the number per microscopic field.

reactive oxygen species = test: Reactive oxygen (oxidant) production after mesenteric ischemia-reperfusion, dihydrorhodamine 123 intravital fluorescence; format: in vivo, rat; settings: rats
Protocol: as §3
as §4, with “injection. The carotid artery of each rat was also cannulated for measurements of mean arterial blood pressure using a pressure transducer (Model P23a, Statham) and physiological recorder (Grass Instruments).” for “injection.”
as §5
In more detail, generation of reactive oxygen levels were measured by the dihydrorhodamine 123 dye. […]

[4] = test system: bovine pulmonary artery endothelial (BPAE) cells; test: Superoxide production in high K+ treated BPAE cells (dichlorodihydrofluorescein); format: cell-based; settings: 10 μM, 30 min
Protocol: PR-39 (SEQ ID No. 1) was also tested in a cell other than neutrophils, namely bovine pulmonary artery endothelial (BPAE) cells. In these cells, membrane depolarization induced by high K^+ treatment results in the production of superoxide anion by an endothelial NADPH oxidase enzyme that may be similar to the oxidase found in neutrophils. In these experiments, cultured BPAE cells were loaded with an oxidation-sensitive dye, dichlorodihydrofluorescein, then treated with high K^+, plus or minus PR-39 (SEQ ID No. 1) or PR-26 (SEQ ID No. 2), for 30 min. Cells were then scraped, pelleted, washed, and sonicated. Fluorescence of the supernatant was then measured to assess superoxide production.

[5] = test system: leukocyte emigration through venular endothelium; test: Leukocyte emigration through venular endothelium after ischemia-reperfusion; format: in vivo, rat; settings: rats, pretreatment with about 5 μM
Protocol: as §3, §4, §5, §6

venular protein leakage = test: Albumin leakage through mesenteric venules (vascular integrity) after ischemia-reperfusion; format: in vivo, rat; settings: rats, PR-39 pretreatment
Protocol: An assessment of vascular integrity was made by quantification of albumin leakage through mesenteric venules. Three groups of Sprague-Dawley rats (6 rats/group and respectively labeled control, I/R and I/R+PR-39) were obtained. […] The control group was subjected to a similar surgical preparation, but without occlusion of the mesenteric artery or PR-39 (SEQ ID No. 1) administration. Fifty mg/kg fluorescein isothiocyanate-labeled bovine albumin was administered IV to each of the rats of each group, 15 min. prior to release of occlusion of the rats of the I/R and I/R+PR-39 (SEQ ID No. 1) groups. Fluorescence intensities within three segments of the venule under study (Iv) and in three adjacent areas of interstitium (Ii) were detected using a SIT camera (Model C-2400-08; Hamamatsu Photonics). Measurements were made at the basal, 20-30 min., and 50-60 min. time points using a computer-assisted digital imaging processor (NIH Image 1.35 on a Macintosh computer). An index of albumin leakage was expressed as the ratio of Ii to Iv at each time.

neutrophil chemotaxis = test: Neutrophil microchemotaxis assay; format: cell-based; settings: rat neutrophils; PR-39 10 μM
Excerpt: A microchemotaxis assay was used to examine the effect of PR-39 (SEQ ID No. 1) and another basic, PXXP-containing antimicrobial peptide, Bac5 (SEQ ID No. 7), on neutrophil chemotaxis alone and in combination. Whole blood was obtained from 250-350 g Sprague-Dawley rats by terminal cardiac puncture into acid citrate dextrose solution. Neutrophils were isolated by dextran sedimentation, followed by density-gradient centrifugation and hypotonic lysis to remove contaminating erythrocytes. Micropore filters (5 μM-pore polycarbonate membrane) were used to separate the lower and upper chambers of the microchemotaxis chamber. Attractants to be tested were diluted in RPMI medium and added (35 μl) to the lower wells of the chamber; 50 μl of the cell suspension ([…]) was added to the upper chamber. Chambers were placed in a humidified atmosphere of 5% CO2 in air at 37° C. for 40 min. Cells on the underside of the filters were fixed, stained, and counted using high-power brightfield microscopy. For each sample, four test wells containing chemoattractant were used. The total number of neutrophils in five fields was counted for each well. All results are expressed as a chemotaxis index defined as […].

[6] = 2 μM adenosine, cat mesenteric model

Nc1ncnc2c1ncn2[C@@H]1O[C@H](CO)[C@@H](O)[C@H]1O [adenosine]
Reduction of reperfusion injury-induced adhesion of neutrophils [1, 6]: 65% | Reduction of reperfusion injury-induced extravasation of neutrophils [1, 6]: 32% | Reduction of oxidant release ([1]; adenosine treatment, literature): 20%

Bac5: basic, PXXP-containing antimicrobial peptide (RFRPPIRRPPIRPPFYPPFRPPIRPPIFPPIRPPFRPPLGPFP)
Inhibition of neutrophil oxidase activity (superoxide anion generation in intact neutrophils) [2]: inhibition of superoxide anion generation

Bac7: cationic, proline-rich, PXXP-containing peptide (RRIRPRPPRLPRPRPRPLYC)
Inhibition of neutrophil oxidase activity (superoxide anion generation in intact neutrophils) [2]: inhibition of superoxide anion generation

C7: non-naturally occurring, cationic, PXXP-containing peptide (RRGPRHPQTRLPRPLPDP)
Inhibition of superoxide anion generation in intact human neutrophils (intact human neutrophils): inhibition of superoxide anion generation

PR-39: proline/arginine-rich peptide of 39 residues (29/39 proline and arginine), most preferred peptide (RRRPRPPYLPRPRPPPFFPPRLPPRIPPGFPPRFPPRFP)
Neutrophil adhesion to venular endothelium [3]: no apparent endothelium neutrophil interaction in excess of basal levels | Oxidant release (reactive oxygen production) (reactive oxygen species; PR-39 pretreatment, comparison with adenosine): complete prevention of oxidant release | Oxidant production (reactive oxygen species; about 5 μM PR-39 pre-ischemia, 20 min ischemia, 30 minutes after resumption of mesenteric venular circulation): significantly inhibited | Oxidase activity (superoxide production) in pulmonary endothelium [4]: decrease oxidase activity | Basal neutrophil emigration ([5]; basal): appeared to be diminished | Transvascular neutrophil emigration ([5]; both post-release time points): no migrating neutrophils observed | Vascular integrity (albumin leakage index Ii/Iv) (venular protein leakage): prevented loss of vascular integrity | Inhibition of neutrophil oxidase activity (superoxide anion generation in intact neutrophils) [2]: inhibition of superoxide anion generation | Neutrophil chemotaxis, examined alone (neutrophil chemotaxis): chemotactic for neutrophils

platelet activating factor [PAF, reference compound]
Neutrophil chemotaxis, examined alone (neutrophil chemotaxis): chemotactic for neutrophils
